From patent publication US8470968B2, “SPARC-derived tumor rejection antigenic peptides and medicaments comprising the same” (Onco Therapy Science, Inc., priority 2006, dated 2013)
Ends that are not written are not given here.

How the values were obtained:
Assay type in all cases: cell-based, mouse
Meth A cell line = assay: Cr-release assay of peptide-induced killer T cells on Meth A cells; conditions: spontaneously expressing SPARC, 4 hours co-culture
Description: (§1) Bone marrow-derived dendritic cells (BM-DC) were induced from bone marrow cells derived from BALBc bone marrow by using GM-CSF as described previously by us (Nakatsura, T et al., Clin Cancer Res 10, 8630-8640, 2004). Thus the obtained BM-DC were cultured with a mixture of the 4 types of peptides selected as described above at a concentration of 10 μM for 2 hours, and the peptide-pulsed BM-DC (5×10^5 cells) were then intraperitoneally administered to each mouse. After an interval of 1 week, the same peptide-pulsed BM-DC were administered to the mouse twice, so that the mouse was strongly immunized. Thereafter, the spleen cells of the mouse were recovered and induction of killer T cells was evaluated. In order to strictly analyze induction of killer T cells derived from CD8^+ T cells, after collection of the spleen, CD4^+ T cells were eliminated from the collected spleen cells, using MACS beads, and the remaining cells were then used for analysis.
(§2) The following protocols were used for generation and characterization of SPARC-specific killer T cells (The day of recovering the spleen cells from the immunized mouse was defined as Day 0.) • Day-21 (1) GM-CSF was added to the bone marrow cells of a BALB/c mouse, so as to start induction of bone marrow-derived dendritic cells (hereinafter referred to as BM-DC). • Day-14 (2) A mixture of the 4 types of SPARC peptides was added to the induced BM-DC, and 2 hours later, 5×10^5 cells were intraperitoneally administered to each mouse. • Steps (1) and (2) were repeated twice every other week. • Day 0 The spleen cells of the immunized BALB/c mouse were recovered. The cells were co-cultured with BM-DC prepulsed with each SPARC peptide for 2 hours. […]
(§3) The cytotoxic activity of the induced SPARC-specific killer T cells on tumor cells was analyzed as follows. […] Thereafter, a culture supernatant was recovered, and the amount of radioactive Cr released from dead cells was quantified, so that cytotoxic activity was detected.

[1] = tested on: T2K^d cells loaded with SPARC K^d peptide; assay: Cr-release assay of peptide-induced killer T cells on peptide-loaded T2K^d cells; conditions: T2K^d cells loaded with the SPARC K^d peptide; 4 hours co-culture; CTL from BM-DC-immunized BALB/c mice
Description: as §1, §2, §3

BALB/3T3 cell line = assay: Cr-release assay of peptide-induced killer T cells on BALB/3T3 cells; conditions: BALB/3T3, spontaneously expressing SPARC; 4 hours co-culture
Description: as §1, §2, §3

Measured: Cytotoxicity of induced killer T cells (Cr release)

EFPLRMRDWL [SPARC- K^d-3, EFPLRMRDWL]
cytotoxicity was observed: all assays above

MYIFPVHWQF [SPARC- K^d-4, MYIFPVHWQF]
cytotoxicity was observed: all assays above

DYIGPCKYI [SPARC- K^d-1, DYIGPCKYI]
cytotoxicity was observed: all assays above
